Data on two molecules can be found in US10160812B2, “Bispecific HER2 antibodies” (MedImmune, LLC, priority 2014, dated 2018).

Assay [1] deals with SKOV-3. In words: Disruption of intracellular microtubule network (immunofluorescence). To be noted: SKOV-3 (T-DM1 eligible), 5 nM ADC overnight. It is filed as cell-based, human. As for the experimental part: On day 1, cells were harvested by trypsinization, resuspended in culture media, and then seeded in 8-well chamber slides at a density of 6×10^4 cells/well. Slides were incubated at 37° C./5% CO2 overnight. On day 2, media were aspirated to remove any unattached cells and then fresh media containing 5 nM ADC to be tested were added to the cells. Slides were incubated at 37° C./5% CO2 overnight. On day 3, each chamber was washed twice with 1×PBS. Cells were then fixed with 4% PFA for 20 min. At the end of fixation, the chambers were removed and slides were stained following standard immunofluorescence procedures. Briefly, cells were permeabilized using Triton X-100 and washed with 1×PBS containing Tween-20. Rabbit anti-human α-Tubulin Alexa-Fluor 488 (clone 11H10) was diluted by 1:100 in DAKO antibody diluent and added to the slides. After incubation at room temperature for 1 hour, slides were coversliped with ProLong® Gold Antifade Reagent containing DAPI. Stained cells were visualized by the Leica SP5 Confocal Microscope and the Leica Application Suite Advanced Fluorescence software suite.

For assay [2], the system named is MDA-MB-453. Description: In vitro cytotoxic activity (Cell Titer Glo). Type of assay: cell-based, human. To be noted: MDA-MB-453, 3 to 4 days; read-out: In vitro potency (EC50 in pM). In general terms: Cellular ATP, detected with luciferase, serves as a proxy for viable cell number.
Description: A panel of human cancer cell lines expressing various levels of HER2 was used to evaluate the cytotoxic activity of bispecific ADC (Table 5 in Example 1). Briefly, cells were harvested, resuspended, and plated in serum-containing culture media at a density of 5,000 to 20,000 per well (depending on the growth kinetics of each cell line) of 96-well plates in a volume of 100 μL. A 2× concentration of each dose of antibody or ADC to be tested was prepared by diluting the test articles in culture medium. One hundred microliters of each test article was added to cells in triplicate such that the final dose curve ranged from 5 nM down to 0.08 pM in a stepwise 1:4 serial dilution series. The treated cells were incubated at 37° C./5% CO2 for 3 to 4 days, depending on the growth kinetics of each particular cell line. Cell viability was determined using Cell Titer Glo according to manufacturer's instructions. Data are analyzed by the GraphPad Prism software and presented as percent growth inhibition relative to the untreated control. EC50 values were determined using Sigmoidal non-linear regression analysis with GraphPad Prism software and were summarized in Table 6.
Assay [3] concerns JIMT-1 model. Description: CBX orthotopic tumor model (T-DM1 non-responder). It is filed as in vivo, Athymic nude mice. To be noted: JIMT-1 orthotopic CBX; Bs2-4T at 3 mg/kg. As for the experimental part: All mouse experiments were carried out in compliance with the guidelines published by the Association for Assessment and Accreditation of Laboratory Animal Care (AAALAC) and protocols approved by the MedImmune Institutional Animal Care and Use Committee. Athymic nude mice between 4-8 weeks of age were used in the studies. In subcutaneous CBX models, animals were injected unilaterally on the right flank with tumor cells harvested from culture at a specific passage lot. […] In PDX models, animals are implanted unilaterally on the flank with tumor fragments harvested from host animals each implanted from a specific passage lot. Pre-study tumor volumes were recorded for each experiment beginning approximately one week prior to its estimated start date. […] Animals were dosed once weekly unless otherwise specified with test articles via intravenous or intraperitoneal injection. Animals were observed daily and tumor dimensions and body weights were measured and recorded twice weekly.

The subject of assay [4] is MCF-7 cells. In words: Ligand-dependent proliferation inhibition assay. Type of assay: cell-based, human. To be noted: in combination with trastuzumab or pertuzumab. As for the experimental part:
Cell viability was determined using Cell Titer Glo from Promega according to manufacturer's instructions.

For assay [5], the target named is HER2 (Homo sapiens, UniProt P04626). In words: Capture ELISA binding specificity / species cross-reactivity. To be noted: recombinant extracellular domain protein. Further details: recombinant extracellular domain proteins: human EGFR, human HER2, human HER3, human HER4, mouse Her2, or cynomolgus monkey Her2. The source says:
(§1) To determine whether 39S retains the binding specificity and species cross-reactivity of its parental antibody AZ1.39.1, binding of 39S to the receptors of human ErbB family (EGFR, HER2, HER3, and HER4), the mouse Her2, and the cynomolgus monkey Her2 was examined by capture ELISA. Briefly, 96-well plates were coated with one of the following recombinant extracellular domain proteins: human EGFR, human HER2, human HER3, human HER4, mouse Her2, or cynomolgus monkey Her2. Antibody to be tested was prepared by diluting in a stepwise 1:3 serial dilution ranging from 50 nM down to 0.28 pM and then added to the wells in duplicate. After one hour of incubation, plates were washed, and goat anti-human IgG Fab HRP-conjugated secondary antibody was added to each well and the plates were incubated for 1 hour. The plates were washed and TMB substrate was added and incubated for 5-20 min to allow color development. The stop solution was added to the wells at the end of reaction and the plates were read at 450 nm. Binding signal (absorbance at 450 nm) was plotted against antibody concentration using Prism software.
(§2) Binding specificity and species cross-reactivity of bispecific antibodies to the recombinant extracellular domain protein of human EGFR, human HER2, human HER3, human HER4, mouse Her2, or cynomolgus monkey Her2 were determined by capture ELISA as described in Example 1. […]
(In general: ELISA stands for enzyme-linked immunosorbent assay.)

In assay [6] the target is mouse Her2 (Mus musculus, UniProt P70424). The description is as above. Particulars: recombinant extracellular domain protein. Further details: recombinant extracellular domain proteins: human EGFR, human HER2, human HER3, human HER4, mouse Her2, or cynomolgus monkey Her2.
Sequence of mouse Her2 (P70424 23-653 limits assumed): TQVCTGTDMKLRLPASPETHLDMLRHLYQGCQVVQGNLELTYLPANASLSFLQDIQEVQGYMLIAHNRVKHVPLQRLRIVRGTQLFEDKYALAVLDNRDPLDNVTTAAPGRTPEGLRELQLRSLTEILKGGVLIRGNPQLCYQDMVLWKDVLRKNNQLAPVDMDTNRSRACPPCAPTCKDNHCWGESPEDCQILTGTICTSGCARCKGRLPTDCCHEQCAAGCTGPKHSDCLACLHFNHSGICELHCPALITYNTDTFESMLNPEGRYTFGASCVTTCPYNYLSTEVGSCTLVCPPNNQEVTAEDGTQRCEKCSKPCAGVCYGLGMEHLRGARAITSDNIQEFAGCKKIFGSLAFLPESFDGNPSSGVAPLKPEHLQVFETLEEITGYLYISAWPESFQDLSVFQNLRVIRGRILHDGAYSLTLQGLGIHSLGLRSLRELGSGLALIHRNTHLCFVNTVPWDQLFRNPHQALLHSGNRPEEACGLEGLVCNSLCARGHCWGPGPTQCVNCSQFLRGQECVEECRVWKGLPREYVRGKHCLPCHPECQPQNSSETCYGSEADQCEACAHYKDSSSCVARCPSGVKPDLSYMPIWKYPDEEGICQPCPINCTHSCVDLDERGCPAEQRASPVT
Description: as §1, §2

The term EC50 denotes the concentration giving half of the maximal effect. Consider T-DM1 [reference compound], for which the “disruption of intracellular microtubule networks” value in assay [1] was “capable of disrupting microtubule networks”. Besides, the EC50 in assay [2] is 344 pM. In addition, in assay [3], the “in vivo activity (tumor growth)” value is on record as “no activity”.

B1: 39S: lead optimized monoclonal antibody derived from the 1.39.1 antibody; VH SEQ ID NO:15, VL SEQ ID NO:16 (antibody, V domains shown)
VH: EVQLVESGGGLVKPGGSLRLSCAASGFTFSSYSMSWVRQAPGKGLEWVSSISSSSSYIYYADSVKGRFTISRDNAKNSLYLQMNSLRAEDTAVYYCARGGDAYNYYYFDYWGQGTLVTVSS
VL: DIVMTQTPLSLSVTPGQPASISCKSSQSVFFRSNNKNILAWYLQKPGQPPQLLIYWASSRESGVPDRFSGSGSGTDFTLKISRVEAEDVGVYYCQQYFGSPFTFGPGTKVDIK
As for B1, the “inhibition of ligand-dependent proliferation in combination” value in assay [4] is listed as “additive or synergistic inhibition”. For the same molecule, the results for the “binding by capture ELISA” value in assay [5] and in assay [6] were “can bind” and “not”, respectively.
